According to patent US20240116892A1, “HETEROCYCLIC AMIDE AND UREA COMPOUNDS AS JAK2 INHIBITORS” (Ajax Therapeutics, Inc., priority 2022, published 2024):

Molecular target: JAK2 (JH1 domain-catalytic, Y1007F, Y1008F) kinase (Homo sapiens (Human), UniProt O60674, Y1007F/Y1008F)
Experiment: JAK2 JH1 Domain Binding Assay
Conditions: qPCR readout
Outline: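 Competitive binding format: test compound, DNA-tagged JAK2 JH1 (Y1007F/Y1008F; HEK293-expressed NFkB fusion) and ligand-coated magnetic beads incubated 1 h at room temperature. Kinase retained on beads released with 0.5 μmol/L non-biotinylated ligand, then measured by qPCR.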

Chain of JAK2 (JH1 domain-catalytic, Y1007F, Y1008F) kinase (O60674 849-1124 Y1007F/Y1008F): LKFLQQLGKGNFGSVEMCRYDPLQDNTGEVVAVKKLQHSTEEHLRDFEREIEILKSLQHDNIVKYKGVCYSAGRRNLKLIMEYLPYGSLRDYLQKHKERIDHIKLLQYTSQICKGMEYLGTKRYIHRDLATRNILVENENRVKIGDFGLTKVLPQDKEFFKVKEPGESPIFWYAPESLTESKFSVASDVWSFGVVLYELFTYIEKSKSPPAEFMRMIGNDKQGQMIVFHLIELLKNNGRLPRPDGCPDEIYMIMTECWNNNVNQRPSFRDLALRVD

Compound	Kd
COc1n[nH]c2ncc(N3CC[C@@H](N(C)C(=O)Nc4cc(C(F)(F)F)cn(C)c4=O)C[C@H]3C)cc12 [Example I-133-b, 1-((2R,4R)-1-(3-methoxy-1H-pyrazolo[3,4-b]pyridin-5-yl)-2-methylpiperidin-4-yl)-1-methyl-3-(1-methyl-2-oxo-5-(trifluoromethyl)-1,2-dihydropyridin-3-yl)urea]	< 10 nM
CC(=O)Nc1cnc(N2CC[C@H](N(C)C(=O)Nc3cc(C(F)(F)F)cn(C)c3=O)C[C@@H]2C)cn1 [Example I-134-a, N-(5-((2S,4S)-2-methyl-4-(1-methyl-3-(1-methyl-2-oxo-5-(trifluoromethyl)-1,2-dihydropyridin-3-yl)ureido)piperidin-1-yl)pyrazin-2-yl)acetamide]	50 to 1000 nM
CC(=O)Nc1cnc(N2CC[C@@H](N(C)C(=O)Nc3cc(C(F)(F)F)cn(C)c3=O)C[C@H]2C)cn1 [Example I-134-b, N-(5-((2R,4R)-2-methyl-4-(1-methyl-3-(1-methyl-2-oxo-5-(trifluoromethyl)-1,2-dihydropyridin-3-yl)ureido)piperidin-1-yl)pyrazin-2-yl)acetamide]	10 to 50 nM
C[C@@H]1C[C@H](N(C)C(=O)Nc2cc(C(C)(C)C)n([C@H]3C[C@H](O)C3)n2)CCN1c1cnc2[nH]ncc2c1 [Example I-135-a, 3-(5-(tert-butyl)-1-((1r,3R)-3-hydroxycyclobutyl)-1H-pyrazol-3-yl)-1-methyl-1-((2R,4R)-2-methyl-1-(1H-pyrazolo[3,4-b]pyridin-5-yl)piperidin-4-yl)urea]	10 to 50 nM
C[C@H]1C[C@@H](N(C)C(=O)Nc2cc(C(C)(C)C)n([C@H]3C[C@H](O)C3)n2)CCN1c1cnc2[nH]ncc2c1 [Example I-135-b, 3-(5-(tert-butyl)-1-((1r,3S)-3-hydroxycyclobutyl)-1H-pyrazol-3-yl)-1-methyl-1-((2S,4S)-2-methyl-1-(1H-pyrazolo[3,4-b]pyridin-5-yl)piperidin-4-yl)urea]	50 to 1000 nM
COc1n[nH]c2ncc(N3CCC(N(C)C(=O)Nc4cc(C5CC5)cn([C@H]5CCCOC5)c4=O)CC3)cc12 [Example I-136-a, (S)-3-(5-cyclopropyl-2-oxo-1-(tetrahydro-2H-pyran-3-yl)-1,2-dihydropyridin-3-yl)-1-(1-(3-methoxy-1H-pyrazolo[3,4-b]pyridin-5-yl)piperidin-4-yl)-1-methylurea]	< 10 nM
COc1n[nH]c2ncc(N3CCC(N(C)C(=O)Nc4cc(C5CC5)cn([C@@H]5CCCOC5)c4=O)CC3)cc12 [Example I-136-b, (R)-3-(5-cyclopropyl-2-oxo-1-(tetrahydro-2H-pyran-3-yl)-1,2-dihydropyridin-3-yl)-1-(1-(3-methoxy-1H-pyrazolo[3,4-b]pyridin-5-yl)piperidin-4-yl)-1-methylurea]	< 10 nM
CC(=O)Nc1cnc(C2=CC[C@@H](N(C)C(=O)Nc3cc(C(F)(F)F)cn(C)c3=O)CC2)cn1 [Example I-140-a, (S)—N-(5-(4-(1-methyl-3-(1-methyl-2-oxo-5-(trifluoromethyl)-1,2-dihydropyridin-3-yl)ureido)cyclohex-1-en-1-yl)pyrazin-2-yl)acetamide]	< 10 nM

Second part, the compound after the results:

Kd	Compound
10 to 50 nM	COc1cc(NC(=O)C2CC2)ncc1N1CCC(N(C)C(=O)Nc2cc(C(F)(F)F)cn(C)c2=O)CC1 [Example I-137, N-(4-methoxy-5-(4-(1-methyl-3-(1-methyl-2-oxo-5-(trifluoromethyl)-1,2-dihydropyridin-3-yl)ureido)piperidin-1-yl)pyridin-2-yl)cyclopropanecarboxamide]
< 10 nM	COc1n[nH]c2ncc(N3CCC(N(C)C(=O)Nc4cc(C(F)(F)F)ccn4)CC3)cc12 [Example I-138, 1-(1-(3-methoxy-1H-pyrazolo[3,4-b]pyridin-5-yl)piperidin-4-yl)-1-methyl-3-(4-(trifluoromethyl)pyridin-2-yl)urea]
< 10 nM	COc1n[nH]c2ncc(N3CCC(N(C)C(=O)Nc4cncc(C(F)(F)F)c4)CC3)cc12 [Example I-139, 1-(1-(3-methoxy-1H-pyrazolo[3,4-b]pyridin-5-yl)piperidin-4-yl)-1-methyl-3-(5-(trifluoromethyl)pyridin-3-yl)urea]
